Reference: publication PMC5101207, “The Oxidosqualene Cyclase from the Oomycete Saprolegnia parasitica Synthesizes Lanosterol as a Single Product” (Frontiers in Microbiology, 2016)

Target: T1, SpLASA (Saprolegnia parasitica, UniProt A0A067BWL7)
T1 construct: gene SPRG_11783; full length, 805 residues (2415 bp amplicon from mycelium cDNA), C-terminal His6 tag (pET-DEST42), E. coli BL21 (DE3), about 91 kDa; not the truncated paralogue SpLASB (SPRG_17895, 472 residues)
T1 sequence (A0A067BWL7 1-805): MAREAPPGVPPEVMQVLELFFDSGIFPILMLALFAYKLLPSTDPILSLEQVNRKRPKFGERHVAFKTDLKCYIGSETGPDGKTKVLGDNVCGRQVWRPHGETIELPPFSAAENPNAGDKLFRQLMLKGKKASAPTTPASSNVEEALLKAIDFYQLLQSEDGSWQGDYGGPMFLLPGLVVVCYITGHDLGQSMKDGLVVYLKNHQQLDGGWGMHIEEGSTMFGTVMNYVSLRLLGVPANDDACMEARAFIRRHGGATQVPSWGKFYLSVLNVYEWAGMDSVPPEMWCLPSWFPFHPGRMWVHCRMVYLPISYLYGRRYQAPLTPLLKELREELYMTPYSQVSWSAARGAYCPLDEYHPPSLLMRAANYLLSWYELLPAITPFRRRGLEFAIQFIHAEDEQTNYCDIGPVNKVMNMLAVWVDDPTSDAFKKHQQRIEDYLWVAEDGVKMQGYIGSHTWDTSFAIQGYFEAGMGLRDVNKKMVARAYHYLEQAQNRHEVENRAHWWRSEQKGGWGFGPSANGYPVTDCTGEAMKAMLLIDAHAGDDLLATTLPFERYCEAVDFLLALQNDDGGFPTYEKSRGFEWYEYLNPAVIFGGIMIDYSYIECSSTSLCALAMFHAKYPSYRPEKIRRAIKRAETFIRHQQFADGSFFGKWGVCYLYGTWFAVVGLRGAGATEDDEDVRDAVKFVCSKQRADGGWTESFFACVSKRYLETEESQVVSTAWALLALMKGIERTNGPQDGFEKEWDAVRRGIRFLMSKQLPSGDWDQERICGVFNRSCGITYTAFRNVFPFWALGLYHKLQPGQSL
Experiment: GC-MS of silylated sterols after incubation with purified enzyme
Format: biochemical
Conditions: 50 mM sodium phosphate pH 7.4, 25°C, 24 h; 10.7 μg substrate, 37.5-112.5 μg protein

| SMILES | GC-MS of silylated sterols after incubation with purified enzyme |
| --- | --- |
| CC(C)=CCC[C@@H](C)[C@H]1CC[C@@]2(C)C3=C(CC[C@]12C)[C@@]1(C)CC[C@H](O)C(C)(C)[C@@H]1CC3 [lanosterol] | the proportion of LA increased linearly with increasing protein concentration |
| CC(C)=CCC/C(C)=C/CC/C(C)=C/CC/C=C(\C)CC/C=C(\C)CC[C@@H]1OC1(C)C [2,3-oxidosqualene] | These experiments confirmed the specific conversion of OS into LA. |
